Assay results reported in patent publication US20220323406A1, “METHODS AND COMPOSITIONS FOR DIFFERENTIATING STEM CELLS” (Massachusetts Institute of Technology, priority 2019, published 2022).
“Also recorded” adds a separate entry of the source.

Key:
[1] = tested on: ENR+CD organoids (ISC to Paneth cell differentiation); experiment: Primary screen: basal (non-stimulated) lysozyme secretion LYZ.NS, 2.5-D 384-well ENR+CD organoid differentiation; assay type: cell-based, mouse; conditions: for Z.LYZ.NS (standard z score) / Dose.FC.LYZ.NS (log2 fold change): primary screen
From the text: (§1) High-throughput screening.

[2] = tested on: ENR+CD organoids (ISC to Paneth cell differentiation); experiment: Primary screen: CCh-stimulated lysozyme secretion LYZ.S, 2.5-D 384-well ENR+CD organoid differentiation; assay type: cell-based, mouse; conditions: for Dose.FC.LYZ.S: primary screen
From the text: as §1

ENR+CD organoids = experiment: Primary screen: ATP (CellTiter-Glo 3D, CTG) cell number/viability, 2.5-D 384-well ENR+CD organoids; conditions: primary screen;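 note: compounds given at plating and again on day 3 over a 6-day differentiation from ENR+CV stem-cell-enriched precursors, ATP measured on day 6, plate median as control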

Compound	Dose.FC.CTG (ENR+CD organoids; dose 0.08 uM) [log2 fold change]	Z.CTG (standard z score) (ENR+CD organoids; dose 0.08 uM)	Dose.FC.CTG (ENR+CD organoids; dose 0.40 uM) [log2 fold change]	Z.CTG (standard z score) (ENR+CD organoids; dose 0.40 uM)	Dose.FC.CTG (ENR+CD organoids; dose 2.00 uM) [log2 fold change]	Z.CTG (standard z score) (ENR+CD organoids; dose 2.00 uM)	Dose.FC.CTG (ENR+CD organoids; dose 10.00 uM) [log2 fold change]	Z.CTG (standard z score) (ENR+CD organoids; dose 10.00 uM)	Dose.FC.LYZ.S ([2]; dose 0.08 uM) [log2 fold change]	Dose.FC.LYZ.S ([2]; dose 0.40 uM) [log2 fold change]	Dose.FC.LYZ.S ([2]; dose 2.00 uM) [log2 fold change]	Dose.FC.LYZ.S ([2]; dose 10.00 uM) [log2 fold change]	other results
C[N+](C)(C)CCOC(N)=O.[Cl-] [CCh, carbamoylcholine chloride, reference compound]	–	–	–	–	–	–	–	–	–	–	–	–	secreted LYZ in LYZ.NS assay, CCh-stimulated vs non-stimulated ENR+CD controls ([1]; 10 uM CCh, adj. p<0.0001): significantly greater; secreted LYZ in LYZ.S assay, controls subsequently stimulated with CCh vs non-stimulated ([2]; 10 uM CCh, adj. p<0.05): showed significant differences; also recorded: significant increase in secreted LYZ
CC(C)C[C@H](NC(=O)[C@H](Cc1ccccc1)NC(=O)c1cnccn1)B(O)O [Bortezomib (PS-341)]	−1.904	−4.547	−2.146	−5.127	−0.915	−2.185	−1.359	−3.246	−0.239	−0.173	−0.249	−0.238	–
CNC(=O)c1cc(Oc2ccc(NC(=O)Nc3cc(C(C)(C)C)nn3-c3ccc4ncccc4c3)c(F)c2)ccn1 [Rebastinib, reference compound]	–	–	–	–	–	–	–	–	–	–	–	–	primary screen hit call (SSMD and z-scored FC cutoffs in both LYZ assays) ([1]; LYZ.NS and LYZ.S, 0.08-10 uM, 6 days ENR+CD): excluded from the hit list due to underperformance on all three assays compared to Bosutinib
CC1=C(/C=C/C(C)=C/C=C/C(C)=C\C(=O)O)C(C)(C)CCC1 [Isotretinoin]	–	–	–	–	–	–	–	–	–	–	–	–	Z.LYZ.NS (standard z score) ([1]; dose 0.40 uM): 0.407; Z.LYZ.NS (standard z score) ([1]; dose 2.00 uM): 0.578; Z.LYZ.NS (standard z score) ([1]; dose 10.00 uM): 0.718
KX2-391	–	−1.796	–	−2.989	–	−4.737	–	−3.377	–	–	–	–	Dose.FC.LYZ.NS (log2 fold change) ([1]; dose 0.08 uM): −0.283; Z.LYZ.NS (standard z score) ([1]; dose 0.08 uM): −2.468; Z.LYZ.NS (standard z score) ([1]; dose 0.40 uM): −2.546; Dose.FC.LYZ.NS (log2 fold change) ([1]; dose 2.00 uM): −0.251; Z.LYZ.NS (standard z score) ([1]; dose 2.00 uM): −2.188; Dose.FC.LYZ.NS (log2 fold change) ([1]; dose 10.00 uM): −0.286; Z.LYZ.NS (standard z score) ([1]; dose 10.00 uM): −2.494
C=CC(=O)Nc1cccc(Oc2nc(Nc3ccc(N4CCN(C)CC4)cc3OC)ncc2Cl)c1 [WZ4002]	0.313	0.748	0.082	0.196	0.151	0.360	−0.941	−2.248	0.114	0.046	−0.109	−0.319	–
O=c1cc(-c2cccc3c2Sc2ccccc2S3)oc(N2CCOCC2)c1 [KU-55933 (ATM Kinase Inhibitor)]	–	1.251	–	1.140	–	1.317	–	1.293	–	–	–	–	–
COc1cc(CCc2cc(NC(=O)c3ccc(N4CC(C)NC(C)C4)cc3)n[nH]2)cc(OC)c1 (stereo not drawn) [AZD4547]	0.160	0.382	0.101	0.241	−0.010	−0.024	−0.062	−0.147	0.157	0.083	0.074	−0.049	–
